Assay results as given in article PMC10987128, “A Natural Small Molecule Mitigates Kidney Fibrosis by Targeting Cdc42‐mediated GSK‐3β/β‐catenin Signaling” (Advanced Science, 2024).
pKd: −log10 of the molar value.

Tests used:
[1] = target: T1, Cdc42 (cell division cycle 42) (Homo sapiens, UniProt P60953); test: SPR (Biacore 8K, Cdc42 immobilized on CM5 chip), positive control; assay type: binding
T1 construct: recombinant Cdc42 protein (230-00660-100, RayBio)
Excerpt: SPR (Biacore 8K, Cdc42 immobilized on CM5 chip), positive control on Cdc42 (cell division cycle 42) | We used ZCL278, a well‐known Cdc42 binding compound, as a positive control in SPR experiments

[2] = target: T1, Cdc42 (cell division cycle 42); test: SPR (Biacore 8K, Cdc42 immobilized on CM5 chip); supported by CETSA and TPP in NRK-49F cells; assay type: binding

T1 sequence (P60953 1-188): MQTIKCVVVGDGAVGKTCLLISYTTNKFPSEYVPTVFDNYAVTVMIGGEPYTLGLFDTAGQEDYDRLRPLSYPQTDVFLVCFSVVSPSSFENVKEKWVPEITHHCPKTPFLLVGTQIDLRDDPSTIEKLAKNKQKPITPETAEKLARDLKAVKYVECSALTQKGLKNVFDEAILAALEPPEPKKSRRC

SMILES	pKd [1]	pKd [2]
Cc1cc(C)nc(NS(=O)(=O)c2ccc(NC(=S)NC(=O)COc3ccc(Br)cc3Cl)cc2)n1 [ZCL278]	4.73	
C=C(C)[C@]12C[C@@H](C)[C@]34OC5(CCCCCCC[C@H](C)[C@@H]6[C@@H]3[C@@](O)(C(=O)[C@@]6(C)O)[C@H](O)[C@@]3(CO)O[C@H]3[C@H]4[C@H]1O5)O2 [compound 15, daphnepedunin A]		4.81
